The source of these data is article PMC9927415, “Tyrosine Kinase Inhibitors Display Potent Activity against Cryptosporidium parvum” (Microbiology Spectrum, 2022).

Holding throughout (assay): KINOMEscan competitive binding, whole panel
For experiment [1], the target named is T1, panel of 203 kinases (Homo sapiens, UniProt P04626).
T1 construct: purchased DiscoverX (KINOMEscan)
The conditions noted are these: 10 µM, n=1; kinase ERBB2; read-out: Percent inhibition ERBB2. In short, it runs like this:
(§1)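 Kinases were expressed as T7 bacteriophage fusions, and test compounds competed with immobilized ATP-site probe ligands for binding. Kinase remaining bound to the solid-support probe was quantified, and values are given as percentage inhibition.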

In experiment [2] the target is T2, panel of 203 kinases (Homo sapiens, UniProt P08069).
T2 construct: purchased DiscoverX (KINOMEscan)
T2 sequence (P08069 31-1367): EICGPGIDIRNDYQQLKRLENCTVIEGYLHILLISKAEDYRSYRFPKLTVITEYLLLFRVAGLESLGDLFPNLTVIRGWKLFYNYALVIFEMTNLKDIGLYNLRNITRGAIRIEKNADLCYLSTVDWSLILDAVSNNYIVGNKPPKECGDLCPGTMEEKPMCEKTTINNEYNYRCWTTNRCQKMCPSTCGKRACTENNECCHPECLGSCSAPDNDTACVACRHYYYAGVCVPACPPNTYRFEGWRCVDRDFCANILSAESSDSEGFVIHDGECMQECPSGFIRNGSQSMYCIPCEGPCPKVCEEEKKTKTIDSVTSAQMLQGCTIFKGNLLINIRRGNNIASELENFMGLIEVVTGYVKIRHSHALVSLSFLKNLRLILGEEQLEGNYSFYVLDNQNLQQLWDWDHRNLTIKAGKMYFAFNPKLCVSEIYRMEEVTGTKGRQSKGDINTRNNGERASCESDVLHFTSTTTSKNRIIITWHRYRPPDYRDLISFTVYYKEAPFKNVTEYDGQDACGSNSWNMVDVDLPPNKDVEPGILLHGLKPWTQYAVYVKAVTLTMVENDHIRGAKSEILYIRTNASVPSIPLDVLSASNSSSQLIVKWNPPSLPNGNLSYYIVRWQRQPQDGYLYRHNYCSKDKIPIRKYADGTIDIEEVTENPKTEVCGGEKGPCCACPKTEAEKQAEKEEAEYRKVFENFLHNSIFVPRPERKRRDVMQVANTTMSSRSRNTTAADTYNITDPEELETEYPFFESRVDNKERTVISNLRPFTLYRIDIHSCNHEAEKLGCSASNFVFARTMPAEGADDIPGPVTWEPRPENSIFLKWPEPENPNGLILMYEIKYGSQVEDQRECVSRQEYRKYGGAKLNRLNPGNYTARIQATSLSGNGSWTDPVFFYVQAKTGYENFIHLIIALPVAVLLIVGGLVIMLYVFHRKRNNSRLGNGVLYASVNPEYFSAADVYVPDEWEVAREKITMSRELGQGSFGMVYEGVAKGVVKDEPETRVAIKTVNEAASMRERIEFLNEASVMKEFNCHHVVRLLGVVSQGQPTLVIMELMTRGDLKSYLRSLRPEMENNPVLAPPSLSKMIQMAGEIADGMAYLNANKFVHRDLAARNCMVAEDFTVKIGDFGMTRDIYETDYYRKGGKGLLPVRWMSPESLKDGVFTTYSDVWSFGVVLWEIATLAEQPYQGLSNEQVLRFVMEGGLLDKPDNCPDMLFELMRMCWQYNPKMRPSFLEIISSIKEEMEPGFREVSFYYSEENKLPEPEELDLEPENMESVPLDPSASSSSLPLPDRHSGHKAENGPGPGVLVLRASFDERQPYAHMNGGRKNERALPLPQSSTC
The following applies: 10 µM, n=1; kinase IGF1R; read-out: Percent inhibition IGF1R. The procedure, abridged: as §1

Experiment [3] addresses T3, panel of 203 kinases (Homo sapiens, UniProt P11362).
T3 construct: purchased DiscoverX (KINOMEscan)
The following applies: 10 µM, n=1; kinase FGFR1; read-out: Percent inhibition FGFR1. The procedure, abridged:
as §1

For experiment [4], the target named is T4, panel of 203 kinases (Homo sapiens, UniProt P15056).
T4 construct: purchased DiscoverX (KINOMEscan)
T4 sequence (P15056 whole entry): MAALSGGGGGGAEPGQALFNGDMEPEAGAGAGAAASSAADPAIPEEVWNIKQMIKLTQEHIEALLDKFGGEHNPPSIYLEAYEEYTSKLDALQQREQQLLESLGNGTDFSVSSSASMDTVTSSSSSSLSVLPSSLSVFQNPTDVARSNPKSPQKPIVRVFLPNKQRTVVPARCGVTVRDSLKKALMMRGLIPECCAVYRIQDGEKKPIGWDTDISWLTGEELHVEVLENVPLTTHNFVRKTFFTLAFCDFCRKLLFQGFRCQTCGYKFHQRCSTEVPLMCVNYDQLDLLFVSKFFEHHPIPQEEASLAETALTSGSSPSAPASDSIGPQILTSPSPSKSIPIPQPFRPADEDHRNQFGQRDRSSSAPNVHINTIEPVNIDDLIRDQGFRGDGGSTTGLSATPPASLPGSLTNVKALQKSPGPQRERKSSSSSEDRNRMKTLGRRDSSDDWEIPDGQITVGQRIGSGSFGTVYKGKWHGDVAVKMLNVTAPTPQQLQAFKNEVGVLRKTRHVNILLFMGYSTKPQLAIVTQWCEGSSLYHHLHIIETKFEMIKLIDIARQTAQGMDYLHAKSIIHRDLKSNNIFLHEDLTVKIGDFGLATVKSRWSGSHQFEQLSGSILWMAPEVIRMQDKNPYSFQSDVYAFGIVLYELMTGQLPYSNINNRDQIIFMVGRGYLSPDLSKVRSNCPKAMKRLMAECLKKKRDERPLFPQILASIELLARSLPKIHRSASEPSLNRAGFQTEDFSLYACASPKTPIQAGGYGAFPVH
The conditions noted are these: 10 µM, n=1; kinase BRAF; read-out: Percent inhibition BRAF. In short, it runs like this:
as §1

Experiment [5] has as its target T5, panel of 203 kinases (Homo sapiens, UniProt P22607).
T5 construct: purchased DiscoverX (KINOMEscan)
The conditions noted are these: 10 µM, n=1; kinase FGFR3; read-out: Percent inhibition FGFR3. In short, it runs like this: as §1

Experiment [6] deals with T6, panel of 203 kinases (Homo sapiens, UniProt P27361).
T6 construct: purchased DiscoverX (KINOMEscan)
T6 sequence (P27361 whole entry): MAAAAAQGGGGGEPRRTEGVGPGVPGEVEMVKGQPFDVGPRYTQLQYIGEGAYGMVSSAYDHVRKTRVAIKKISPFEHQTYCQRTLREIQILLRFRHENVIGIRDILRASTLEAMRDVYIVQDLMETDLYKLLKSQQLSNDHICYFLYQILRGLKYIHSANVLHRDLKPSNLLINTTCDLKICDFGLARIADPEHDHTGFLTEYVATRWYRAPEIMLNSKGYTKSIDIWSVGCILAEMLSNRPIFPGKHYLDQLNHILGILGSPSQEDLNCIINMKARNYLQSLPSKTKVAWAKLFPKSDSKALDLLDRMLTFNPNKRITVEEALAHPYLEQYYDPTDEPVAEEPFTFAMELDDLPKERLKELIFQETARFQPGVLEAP
The following applies: 10 µM, n=1; kinase ERK1; read-out: Percent inhibition ERK1. In short, it runs like this:
as §1

For experiment [7], the target named is T7, panel of 203 kinases (Homo sapiens, UniProt P29317).
T7 construct: purchased DiscoverX (KINOMEscan)
T7 sequence (P29317 24-976): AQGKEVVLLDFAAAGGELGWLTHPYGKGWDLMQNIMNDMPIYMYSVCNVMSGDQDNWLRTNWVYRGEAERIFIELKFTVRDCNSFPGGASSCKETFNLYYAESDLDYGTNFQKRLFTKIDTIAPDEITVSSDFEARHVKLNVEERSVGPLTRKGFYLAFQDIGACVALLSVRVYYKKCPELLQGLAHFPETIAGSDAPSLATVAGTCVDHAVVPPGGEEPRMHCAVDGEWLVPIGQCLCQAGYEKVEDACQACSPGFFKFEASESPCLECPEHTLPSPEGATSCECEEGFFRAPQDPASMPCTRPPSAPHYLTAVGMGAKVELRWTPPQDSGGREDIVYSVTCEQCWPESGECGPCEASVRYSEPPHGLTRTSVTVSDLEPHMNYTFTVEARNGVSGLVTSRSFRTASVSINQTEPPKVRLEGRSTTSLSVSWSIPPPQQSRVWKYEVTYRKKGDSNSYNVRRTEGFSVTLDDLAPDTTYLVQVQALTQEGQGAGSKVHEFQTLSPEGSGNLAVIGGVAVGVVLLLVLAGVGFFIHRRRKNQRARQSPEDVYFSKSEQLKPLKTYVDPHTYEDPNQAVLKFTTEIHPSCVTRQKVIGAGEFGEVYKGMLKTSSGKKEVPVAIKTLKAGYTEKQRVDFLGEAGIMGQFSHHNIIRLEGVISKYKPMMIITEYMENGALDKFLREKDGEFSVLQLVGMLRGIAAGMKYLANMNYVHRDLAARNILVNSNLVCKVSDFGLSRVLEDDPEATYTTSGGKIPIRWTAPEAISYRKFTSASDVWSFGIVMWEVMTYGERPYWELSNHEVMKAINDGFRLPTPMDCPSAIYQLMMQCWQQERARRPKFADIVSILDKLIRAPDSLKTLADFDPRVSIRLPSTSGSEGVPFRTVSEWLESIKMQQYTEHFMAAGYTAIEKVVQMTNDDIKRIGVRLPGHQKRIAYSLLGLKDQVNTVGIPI
The following applies: 10 µM, n=1; kinase EPHA2; read-out: Percent inhibition EPHA2. The procedure, abridged: as §1

For experiment [8], the target named is T8, panel of 203 kinases (Homo sapiens, UniProt P53671).
T8 construct: purchased DiscoverX (KINOMEscan)
T8 sequence (P53671 whole entry): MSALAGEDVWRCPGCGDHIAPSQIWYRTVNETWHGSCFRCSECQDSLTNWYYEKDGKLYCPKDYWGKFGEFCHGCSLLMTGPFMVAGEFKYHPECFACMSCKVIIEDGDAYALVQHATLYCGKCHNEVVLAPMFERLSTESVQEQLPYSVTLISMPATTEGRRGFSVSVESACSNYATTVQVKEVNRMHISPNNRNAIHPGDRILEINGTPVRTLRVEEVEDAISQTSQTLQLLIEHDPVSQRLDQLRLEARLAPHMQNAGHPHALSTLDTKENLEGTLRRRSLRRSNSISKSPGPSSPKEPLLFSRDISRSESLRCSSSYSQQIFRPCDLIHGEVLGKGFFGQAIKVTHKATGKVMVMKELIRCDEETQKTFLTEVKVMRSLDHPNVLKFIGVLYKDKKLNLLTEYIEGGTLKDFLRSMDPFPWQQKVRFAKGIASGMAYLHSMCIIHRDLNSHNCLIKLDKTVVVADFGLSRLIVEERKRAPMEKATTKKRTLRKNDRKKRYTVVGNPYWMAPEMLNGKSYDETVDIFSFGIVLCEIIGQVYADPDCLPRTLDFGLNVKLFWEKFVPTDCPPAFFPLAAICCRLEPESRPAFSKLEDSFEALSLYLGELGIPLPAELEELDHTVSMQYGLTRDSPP
The following applies: 10 µM, n=1; kinase LIMK2; read-out: Percent inhibition LIMK2. The procedure, abridged:
as §1

Experiment [9] has as its target T9, panel of 203 kinases (Homo sapiens, UniProt P78368).
T9 construct: purchased DiscoverX (KINOMEscan)
The conditions noted are these: 10 µM, n=1; kinase CSNK1G2; read-out: Percent inhibition CSNK1G2. The procedure, abridged:
as §1

Experiment [10] deals with T10, panel of 203 kinases (Homo sapiens, UniProt Q15375).
T10 construct: purchased DiscoverX (KINOMEscan)
The following applies: 10 µM, n=1; kinase EPHA7; read-out: Percent inhibition EPHA7. The procedure, abridged:
as §1

For experiment [11], the target named is T11, panel of 203 kinases (Homo sapiens, UniProt Q7KZI7).
T11 construct: purchased DiscoverX (KINOMEscan)
The conditions noted are these: 10 µM, n=1; kinase MARK2; read-out: Percent inhibition MARK2. The procedure, abridged:
as §1

Experiment [12] concerns the target T12, panel of 203 kinases (Homo sapiens, UniProt Q8N752).
T12 construct: purchased DiscoverX (KINOMEscan)
T12 sequence (Q8N752 1-337): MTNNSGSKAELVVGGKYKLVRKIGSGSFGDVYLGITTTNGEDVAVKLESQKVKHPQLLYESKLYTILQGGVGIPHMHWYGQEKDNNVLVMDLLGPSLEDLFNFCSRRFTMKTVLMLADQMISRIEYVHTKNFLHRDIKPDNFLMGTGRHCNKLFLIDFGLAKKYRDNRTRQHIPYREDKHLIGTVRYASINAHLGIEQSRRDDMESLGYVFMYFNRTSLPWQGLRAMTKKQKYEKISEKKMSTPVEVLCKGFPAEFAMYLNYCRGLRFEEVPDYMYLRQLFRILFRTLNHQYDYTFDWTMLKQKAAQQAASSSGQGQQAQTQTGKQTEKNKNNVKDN
The conditions noted are these: 10 µM, n=1; kinase CSNK1A1L; read-out: Percent inhibition CSNK1A1L. In short, it runs like this: as §1

Experiment [13] concerns the target T13, panel of 203 kinases (Homo sapiens, UniProt Q8TDX7).
T13 construct: purchased DiscoverX (KINOMEscan)
The conditions noted are these: 10 µM, n=1; kinase NEK7; read-out: Percent inhibition NEK7. The procedure, abridged:
as §1

Experiment [14] concerns the target T14, panel of 203 kinases (Homo sapiens, UniProt Q96L34).
T14 construct: purchased DiscoverX (KINOMEscan)
T14 sequence (Q96L34 1-752): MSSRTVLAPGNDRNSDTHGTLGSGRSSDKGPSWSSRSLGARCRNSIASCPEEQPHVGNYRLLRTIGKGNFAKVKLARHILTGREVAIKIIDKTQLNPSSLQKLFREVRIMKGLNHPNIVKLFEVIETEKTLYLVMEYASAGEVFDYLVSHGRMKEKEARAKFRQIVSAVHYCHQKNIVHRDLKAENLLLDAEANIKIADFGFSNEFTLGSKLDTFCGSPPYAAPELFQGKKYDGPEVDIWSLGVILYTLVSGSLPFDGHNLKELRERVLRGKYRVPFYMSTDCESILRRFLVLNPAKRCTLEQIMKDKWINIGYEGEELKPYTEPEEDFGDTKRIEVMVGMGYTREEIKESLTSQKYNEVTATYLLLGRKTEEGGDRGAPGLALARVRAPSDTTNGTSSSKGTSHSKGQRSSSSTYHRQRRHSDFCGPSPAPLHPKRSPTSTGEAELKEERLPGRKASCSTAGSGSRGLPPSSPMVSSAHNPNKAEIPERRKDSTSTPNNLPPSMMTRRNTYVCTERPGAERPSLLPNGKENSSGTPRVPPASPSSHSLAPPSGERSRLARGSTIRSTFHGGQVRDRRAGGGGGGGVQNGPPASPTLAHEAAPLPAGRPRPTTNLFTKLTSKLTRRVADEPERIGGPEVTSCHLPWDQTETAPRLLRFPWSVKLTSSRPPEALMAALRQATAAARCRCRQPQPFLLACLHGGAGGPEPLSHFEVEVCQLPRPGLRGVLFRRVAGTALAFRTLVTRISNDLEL
The conditions noted are these: 10 µM, n=1; kinase MARK4; read-out: Percent inhibition MARK4. In short, it runs like this:
as §1

The target of experiment [15] is T15, panel of 203 kinases (Homo sapiens, UniProt Q96NX5).
T15 construct: purchased DiscoverX (KINOMEscan)
The conditions noted are these: 10 µM, n=1; kinase CAMK1G; read-out: Percent inhibition CAMK1G. In short, it runs like this:
as §1

In experiment [16] the target is T16, panel of 203 kinases (Homo sapiens, UniProt Q9H1R3).
T16 construct: purchased DiscoverX (KINOMEscan)
The conditions noted are these: 10 µM, n=1; kinase MYLK2; read-out: Percent inhibition MYLK2. In short, it runs like this:
as §1

The target of experiment [17] is T17, panel of 203 kinases (Homo sapiens, UniProt Q9HAZ1).
T17 construct: purchased DiscoverX (KINOMEscan)
The following applies: 10 µM, n=1; kinase CLK4; read-out: Percent inhibition CLK4. The procedure, abridged:
as §1

Experiment [18] has as its target T18, panel of 203 kinases (Homo sapiens, UniProt Q9Y2H1).
T18 construct: purchased DiscoverX (KINOMEscan)
The following applies: 10 µM, n=1; kinase NDR2; read-out: Percent inhibition NDR2. In short, it runs like this: as §1

T3 sequence (P11362 22-822): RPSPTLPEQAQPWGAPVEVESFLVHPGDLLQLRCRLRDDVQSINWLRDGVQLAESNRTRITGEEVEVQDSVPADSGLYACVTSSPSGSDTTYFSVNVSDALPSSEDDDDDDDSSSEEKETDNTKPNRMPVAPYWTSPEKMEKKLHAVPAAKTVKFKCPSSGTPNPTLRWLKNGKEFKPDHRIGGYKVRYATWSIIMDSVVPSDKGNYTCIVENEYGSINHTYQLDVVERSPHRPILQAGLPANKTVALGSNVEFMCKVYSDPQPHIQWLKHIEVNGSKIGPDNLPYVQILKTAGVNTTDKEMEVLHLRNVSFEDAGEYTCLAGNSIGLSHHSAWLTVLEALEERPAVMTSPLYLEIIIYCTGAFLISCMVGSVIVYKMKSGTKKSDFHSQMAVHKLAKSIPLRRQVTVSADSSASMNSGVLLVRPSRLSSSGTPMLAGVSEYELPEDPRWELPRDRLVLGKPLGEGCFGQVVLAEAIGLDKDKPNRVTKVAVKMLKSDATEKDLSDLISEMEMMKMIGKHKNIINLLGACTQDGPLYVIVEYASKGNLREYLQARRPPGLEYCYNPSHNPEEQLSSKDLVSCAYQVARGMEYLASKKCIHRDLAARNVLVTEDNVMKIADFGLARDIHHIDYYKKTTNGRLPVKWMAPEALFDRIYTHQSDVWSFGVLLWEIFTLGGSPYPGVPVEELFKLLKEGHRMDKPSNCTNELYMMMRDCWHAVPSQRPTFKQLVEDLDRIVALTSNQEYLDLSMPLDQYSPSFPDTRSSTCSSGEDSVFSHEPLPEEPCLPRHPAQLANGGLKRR

Broadly, the inhibition is the share of the control response that was lost under treatment. For the compound `Cc1ccc(O)cc1Nc1ccnc(Nc2cccc(C(N)=O)c2)n1` [Compound 3], the inhibition at 10 µM in experiment [1] turned out to be 0%; in experiment [2] it was 0%; in experiment [3] it was 0%; in experiment [4] it was 0%; in [5], 0%; in experiment [6] it was 67.8%. Also, the inhibition at 10 µM in [7] turned out to be 99.9%; in experiment [8] it was 96.6%; in [9], 93.3%; in experiment [10], 84%; in experiment [11], 0%; in experiment [12], 99.8%. The inhibition at 10 µM in experiment [13] was 0%; in experiment [14] it was 0%; in experiment [15] it was 0%; in experiment [16], 83.2%; in [17] it was 0%; in experiment [18], 0%.
Regarding `Clc1ccc(Nc2ncc(-c3ccccc3)s2)cc1` [Compound 10], the inhibition at 10 µM in experiment [1], in experiment [2], in [3], in [4], in experiment [5] and in experiment [6] was 0% throughout. The inhibition at 10 µM in experiment [7], in [8], in [9], in [10], in [11] and in experiment [12] was 0% each time. For the same compound, the inhibition at 10 µM in experiment [13], in experiment [14], in experiment [15], in experiment [16], in [17] and in experiment [18] was 0% in each case.
Take `c1ccc(COc2cccc(-c3ccnc4[nH]ccc34)c2)cc1` [Compound 9]: the inhibition at 10 µM in [1], in experiment [2], in [3], in [4], in [5] and in experiment [6] was 0% throughout. Further, the inhibition at 10 µM in experiment [7], in experiment [8], in [9], in experiment [10], in experiment [11] and in experiment [12] was 0% each time. Moreover, the inhibition at 10 µM in experiment [13], in experiment [14], in experiment [15], in experiment [16], in experiment [17] and in experiment [18] was 0% each time.
Consider `Fc1cccc(COc2ccc(Nc3ncnc4c3CN(CCN3CCOCC3)CC4)cc2Cl)c1` [Compound 6], for which the inhibition at 10 µM in [1] was 86.5%; in experiment [2], 0%; in experiment [3], 0%; in experiment [4], 0%; in experiment [5], 96.3%; in experiment [6], 0%. The inhibition at 10 µM in experiment [7], in experiment [8], in experiment [9], in [10], in experiment [11] and in experiment [12] was 0% each time. For the same compound, the inhibition at 10 µM in [13], in experiment [14], in [15], in experiment [16], in experiment [17] and in experiment [18] was 0% in each case.
Turning to `C[C@@H](Oc1cc(-c2cnc3ccccn23)sc1C(N)=O)c1ccccc1Cl` [Compound 8], the inhibition at 10 µM in experiment [1] was determined as 0%; in [2], 0%; in [3], 0%; in experiment [4], 0%; in experiment [5], 0%; in [6], 83.2%. Further, the inhibition at 10 µM in experiment [7], in experiment [8], in experiment [9], in experiment [10], in experiment [11] and in experiment [12] was 0% throughout. Besides, the inhibition at 10 µM is 0% in experiment [13]; 0% in experiment [14]; 0% in experiment [15]; 66.5% in experiment [16]; 81% in experiment [17]; 0% in [18].
As for `CN1CCN(c2ccc(Nc3nccc(-c4cnn5ncccc45)n3)cc2C#N)CC1` [Compound 1], the inhibition at 10 µM in experiment [1] worked out at 0%; in experiment [2] it was 99.4%; in experiment [3] it was 74.1%; in experiment [4], 0%; in experiment [5], 0%; in experiment [6], 98.5%. For the same compound, the inhibition at 10 µM in experiment [7] turned out to be 0%; in [8], 100%; in experiment [9] it was 88.3%; in experiment [10], 67.3%; in experiment [11] it was 92%; in experiment [12], 100%. Moreover, the inhibition at 10 µM in [13] is 100%; in experiment [14], 0%; in experiment [15], 90.5%; in experiment [16] it was 96.8%; in [17] it was 99.5%; in [18], 0%.
